Assay results reported in the NIST ThermoML archive (doi:10.1021/je7006692).

Test: relative permittivity at zero frequency (dimensionless)
Conditions: Liquid

Cc1ccccc1 [toluene]
Reentrant cavity resonator
Conditions | relative permittivity at zero frequency
290.63 K, 100 kPa | 2.40453
290.65 K, 100 kPa | 2.40448
290.69 K, 2170 kPa | 2.41272
290.77 K, 4240 kPa | 2.41409
290.81 K, 6310 kPa | 2.41721
290.83 K, 8370 kPa | 2.4202
290.87 K, 12510 kPa | 2.42629
290.88 K, 16100 kPa | 2.43136
290.9 K, 16650 kPa | 2.4322
291.15 K, 100 kPa | 2.3983
292.65 K, 100 kPa | 2.40346
294.8 K, 100 kPa | 2.39092
310.68 K, 100 kPa | 2.35675
310.79 K, 100 kPa | 2.35646
311.94 K, 100 kPa | 2.35363
314.47 K, 100 kPa | 2.3479
315.68 K, 100 kPa | 2.34035
315.77 K, 100 kPa | 2.33999
315.78 K, 1140 kPa | 2.34185
315.78 K, 8370 kPa | 2.35428
315.79 K, 2170 kPa | 2.34366
315.79 K, 3200 kPa | 2.34545
315.79 K, 4240 kPa | 2.34729
315.79 K, 6310 kPa | 2.35078
315.79 K, 12510 kPa | 2.36095
315.79 K, 16650 kPa | 2.3674
315.79 K, 19410 kPa | 2.37152
320.64 K, 100 kPa | 2.32926
320.66 K, 1140 kPa | 2.33114
324.52 K, 100 kPa | 2.32053
324.53 K, 1140 kPa | 2.32241
324.54 K, 2170 kPa | 2.32435
324.54 K, 3200 kPa | 2.32625
324.54 K, 4240 kPa | 2.32811
324.54 K, 6310 kPa | 2.33179
324.58 K, 8370 kPa | 2.33528
324.61 K, 12510 kPa | 2.34222
324.62 K, 16650 kPa | 2.34897
339.31 K, 100 kPa | 2.28784
339.35 K, 2170 kPa | 2.2919
339.38 K, 4240 kPa | 2.29596
339.38 K, 6310 kPa | 2.29992
339.39 K, 8370 kPa | 2.3038
339.41 K, 12510 kPa | 2.31127
339.41 K, 16650 kPa | 2.31844
357.44 K, 6310 kPa | 2.26156
357.45 K, 2170 kPa | 2.25261
357.45 K, 4240 kPa | 2.25717
357.46 K, 100 kPa | 2.24793
357.52 K, 8370 kPa | 2.26578
357.54 K, 12510 kPa | 2.274
357.55 K, 16650 kPa | 2.28185
390.53 K, 170 kPa | 2.17781
390.53 K, 2170 kPa | 2.18342
390.59 K, 100 kPa | 2.17698
390.59 K, 4240 kPa | 2.18899
390.61 K, 6310 kPa | 2.19431
390.63 K, 8370 kPa | 2.19969
390.65 K, 12510 kPa | 2.20969
390.68 K, 16650 kPa | 2.21925
405.84 K, 2170 kPa | 2.14947
406.3 K, 6310 kPa | 2.16081
406.32 K, 4240 kPa | 2.15467
406.37 K, 8370 kPa | 2.16653
406.54 K, 12510 kPa | 2.17721
406.64 K, 16650 kPa | 2.18731

Conditions | relative permittivity at zero frequency
297.37 K, 34905 kPa | 2.443
297.37 K, 41879 kPa | 2.4564
297.38 K, 27906 kPa | 2.4276
297.39 K, 20942 kPa | 2.4127
297.4 K, 13927 kPa | 2.3962
297.41 K, 6919 kPa | 2.3777
